US7351708B2, “Pyrrolo [2,3-b] pyridine derivatives” (Hoffmann-La Roche Inc., priority 2005, dated 2008)

What follows are compounds tested against T1, histamine 3 receptor (H3R) (Homo sapiens, UniProt Q9Y5N1) (assay: Binding assay with 3H-(R)α-Methylhistamine (competition binding, membranes of the human HR3-CHO cell line)). Details: competition against 3H(R)α-Methylhistamine (1 nM), Ki calculated from IC50 by Cheng-Prusoff.
T1 construct: expressed in transfected cells; host or cells: CHO cells (HR3-CHO cell line), membranes
T1 sequence (Q9Y5N1 whole entry): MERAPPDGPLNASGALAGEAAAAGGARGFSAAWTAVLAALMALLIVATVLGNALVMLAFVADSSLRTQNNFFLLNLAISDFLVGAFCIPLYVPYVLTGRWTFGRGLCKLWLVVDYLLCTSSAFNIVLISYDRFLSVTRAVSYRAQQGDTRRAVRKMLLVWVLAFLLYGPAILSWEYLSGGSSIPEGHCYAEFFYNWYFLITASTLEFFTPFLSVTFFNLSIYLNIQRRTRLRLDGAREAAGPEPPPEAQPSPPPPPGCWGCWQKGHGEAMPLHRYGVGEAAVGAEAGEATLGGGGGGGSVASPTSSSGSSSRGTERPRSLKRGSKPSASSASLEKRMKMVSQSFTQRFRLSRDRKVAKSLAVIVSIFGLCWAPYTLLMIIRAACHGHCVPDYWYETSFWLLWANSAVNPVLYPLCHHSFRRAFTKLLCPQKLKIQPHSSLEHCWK
Protocol: Binding Assay with ^3H—(R)α-Methylhistamine
Saturation binding experiments were performed using HR3-CHO membranes prepared as described in Takahashi, K, Tokita, S., Kotani, H. (2003) J. Pharmacol. Exp. Therapeutics 307, 213-218.
An appropriate amount of membrane (60 to 80 μg protein/well) was incubated with increasing concentrations of ^3H(R)α-Methylhistamine di-hydrochloride (0.10 to 10 nM). Non specific binding was determined using a 200 fold excess of cold (R)α-Methylhistamine dihydrobromide (500 nM final concentration). The incubation was carried out at room temperature (in deep-well plates shaking for three hours). The final volume in each well was 250 μl. The incubation was followed by rapid filtration on GF/B filters (pre-soaked with 100 μl of 0.5% PEI in Tris 50 mM shaking at 200 rpm for two hours). The filtration was made using a cell-harvester and the filter plates were then washed five times with ice cold washing buffer containing 0.5 M NaCl. After harvesting, the plates were dried at 55° C. for 60 min, then we added scintillation fluid (Microscint 40, 40 microl in each well) and the amount of radioactivity on the filter was determined in Packard top-counter after shaking the plates for two hours at 200 rpm at room temperature.
Binding Buffer: 50 mM Tris-HCl pH 7.4 and 5 mM MgCl2x 6H2O pH 7.4. Washing Buffer: 50 mM Tris-HCl pH 7.4 and 5 mM MgCl2x6H2O and 0.5 M NaCl pH 7.4.
Indirect measurement of affinity of H3R inverse agonists: twelve increasing concentrations (ranging from 10 μM to 0.3 nM) of the selected compounds were always tested in competition binding experiments using membrane of the human HR3-CHO cell line. An appropriate amount of protein, e.g. approximately 500 cpm binding of RAMH at Kd, were incubated for 1 hour at room temperature in 250 μl final volume in 96-well plates in presence of ^3H(R)α-Methylhistamine (1 nM final concentration=Kd). […]
All compounds were tested at a single concentration in duplicates. […] Ki's were calculated from IC50 based on Cheng-Prusoff equation (Cheng, Y, Prusoff, WH (1973) Biochem Pharmacol 22, 3099-3108).
In the case of O=C(c1cc2ccc(N3CCN(C4CCCC4)CC3)nc2[nH]1)N1CCC(O)C1 (stereo not drawn) [Example 8, [6-(4-cyclopentyl-piperazin-1-yl)-1H-pyrrolo[2,3-b]pyridin-2-yl]-(3-hydroxy-pyrrolidin-1-yl)-methanone], the Ki is reported as 83.1 nM.
O=C(NC1CCCCC1)c1cc2ccc(N3CCN(C4CCCC4)CC3)nc2[nH]1 [Example 4, 6-(4-cyclopentyl-piperazin-1-yl)-1H-pyrrolo[2,3-b]pyridine-2-carboxylic acid cyclohexylamide] gave a Ki of 22.7 nM.
In the case of O=C(c1cc2ccc(N3CCN(C4CCCC4)CC3)nc2[nH]1)N1CCCCC1 [Example 1, [6-(4-Cyclopentyl-piperazin-1-yl)-1H-pyrrolo[2,3-b]pyridin-2-yl]-piperidin-1-yl-methanone], the Ki is reported as 48.4 nM.
